Test results taken from patent US20180110742A1, “NMDA ANTAGONISTS FOR THE TREATMENT OF MENTAL DISORDERS WITH OCCURRENCE OF […]/OR IMPULSIVE BEHAVIOR” (ICM (INSTITUT DU CERVEAU ET DE LA MOELLE EPINIERE), priority 2015, published 2018).

Experiments:
rhesus monkeys = assay: Delayed saccade oculomotor paradigm (inhibition of premature saccades) after i.m. ketamine or saline; assay type: in vivo, rhesus monkey
Excerpt: FIG. 2 is a diagram showing the sequence of events. The trial started with the appearance of a fixation cross for a randomized duration followed by the appearance of two empty ‘boxes’, one at the center of the screen and at a 9-deg eccentric position. After the appearance of the two boxes, a target was flashed in the central one for 50 milliseconds. Extinction of the central target marked the beginning of the delay period that could last either 400, 900, 1400 or 1900 ms. At the end of the delay period, a target appeared for 50 ms in the eccentric box and the subject had to make a saccade to the eccentric box within a 400 ms grace period.
The experimental paradigm was designed to create a conflict between the urge to make a saccade to the peripheral box and the necessity to maintain fixation until the eccentric target appeared (FIG. 2). This required a strong inhibition of premature saccades before the appearance of the eccentric target.
A total of 14104 saccades were analyzed in the three monkeys of the present study (L, S, Y). […] Positive values represent saccades occurring after target onset. We classified saccades as visually-guided for latencies longer than 100 ms. Latencies shorter than 100 ms represent premature (anticipatory) saccades. It can be observed that in the control condition (dashed curve on FIG. 3A), average saccadic latencies tended on average to decrease with increasing delay duration, more premature saccades occurring during long delays. […] However, a significant interaction between injected product (placebo or ketamine) and delay duration was found (F3; 6.012=8.195; P=0.015). […] Saccades in short delay trials (400 or 900 ms delays) were less affected than saccades when the delay was longer (1400 or 1900 ms). This influence of ketamine on movement latency was reproducible between monkeys.
Three monkeys participated in the present study (referred to as L, S, Y). Apparatus
Subjects sat in darkness, facing a CRT screen, which presented stimuli at a frequency of 60 Hz. An EyeLink 1000 infrared eye tracking system (SR Research, Mississauga, Ontario) was used to record movements of the right eye at 1 KHz. All experiments were run with homemade stimulus generation software based on a real time Linux kernel (Xenomaï). Stimulus display and oculomotor data collection were synchronized on a frame-by-frame basis. Saccades were detected offline in MATLAB (MathWorks, Natic, Mass.) with a velocity threshold of 30 deg/sec.
Each trial started with an initial fixation period (referred to as ‘initial fixation’), with a small cross (0.7 deg) appearing on the CRT screen for a random duration (850±100 ms; see ‘X’ on FIG. 1). At the end of this random delay, two empty square ‘boxes’ appeared on the screen (1.4×1.4 deg), one in the center of the screen and one 9 deg eccentric, randomly to the right or to the left. […] Afterwards, a square target (1.4×1.4 deg) was flashed in the central box for 50 ms. Extinction of the initial target indicated to subjects the beginning of the delay period. Subjects were required to hold on fixation of the central box until another target (1.4×1.4 deg) was briefly presented for 50 ms in the eccentric box. In the variable fore period design, the delay period could take one of 4 different values with the same probability: 400 ms, 900 ms, 1400 ms and 1900 ms. In order to receive reward, subjects had to maintain fixation of the central box and wait for the appearance of the eccentric target. This required a strong inhibition of early saccades before the appearance of the eccentric target. Early saccades were not rewarded. This paradigm was designed to test inhibition during the delay period.
Each experimental session started with a block of 200 trials before injection to measure the baseline saccadic latency on a day-by-day basis. On a randomly selected day ketamine (0.250 mg/kg) was injected i.m. or a placebo saline solution (NaCl 0.9%) of the same volume (0.3 ml). […]

[1] = test system: supplementary eye field (SEF) neurons; assay: Single-neuron recordings of saccade-related and fixation neurons during the saccade task; assay type: in vivo, rhesus monkey; conditions: 0.25 mg/kg i.m.; for average neuronal activity of fixation units/neurons: delay and saccadic period, 0.25 mg/kg
Excerpt: FIG. 9 is a graph showing the average neuronal activity (spike density) of 30 movement-related supplementary eye field (SEF) neurons during fixation (negative time), delay (between the two vertical dashed lines) and after saccade appearance (after the second dashed lined). Group data. A: delay duration: 400 ms. B: delay duration: 900 ms. C: delay duration: 1400 ms. D: delay duration: 1900 ms. […] This can be associated with the decrease of premature saccades.
FIG. 10 is a graph showing the average neuronal activity of “fixation” units during fixation, delay and saccadic period. Group data. A: delay duration: 400 ms. B: delay duration: 900 ms. C: delay duration: 1400 ms. D: delay duration: 1900 ms. […] This could be related to the enhanced inhibition capacity and reduction of impulsive behavior observed.
Neuronal activity of two animals was recorded on neurons with phasic discharge during the saccade (saccadic-relayed neurons, FIG. 9) and neurons with tonic activity when the eye is immobile (fixation neurons, FIG. 10). Average activity of 30 neurons is shown in the control condition (no ketamine) and after injection of 0.25 mg/kg ketamine i.m.
One male and one female rhesus monkey were used in this study. All procedures were approved by the Institutional Animal Care and Use Committee and were in compliance with the guidelines set forth in the United States Public Health Service Guide for the Care and Use of Laboratory Animals.
A celux recording chamber (Crist Instruments, Hagerstown, Md.) was positioned at 24 mm anterior in Horsley-Clark stereotaxic coordinates and centered on the midline of the brain in both monkeys. At the completion of the surgeries, animals were returned to their home cages. Antibiotics and analgesics were administered as needed during the recovery period under the direction of a veterinarian.
The monkeys were seated in a primate chair with their head restrained for the duration of the testing sessions. They were trained to execute the behavioral task described above for liquid reward and were allowed to work to satiation. Records of each animal's weight and health status were kept, and supplemental water was given as necessary. The monkeys had their heads immobilized and were trained to pursue spots of light projected on a tangent screen in front of them.
To record neuronal activity, a single tungsten microelectrode (FHC, Bowdoinham, Me.) of approximately 6 MΩ impedance at 1 kHz was lowered into the cortex through the dura using a Narishige microdrive. The position of the electrode was determined using a grid system (Crist et al., 1988). Action potentials of single units were isolated using an on-line spike-sorting system that uses a template-matching algorithm (Plexon Inc). A pulse was generated each time an action potential was detected and stored with a 1 ms resolution.
To analyze the time course of neuronal activity, spike trains were convolved with a Gaussian probability density in steps of 1 ms to generate the spike-density function (Richmond et al., 1987). The SD of the Gaussian function was set to 20 ms. The average spike density in each experimental condition was computed from all trials in which subjects pursued the target until the end of its trajectory.

[2] = higher doses, e.g. 0.6 mg/kg; cited from earlier work
[3] = Total of monkeys L, S, Y, 0.25 mg/kg i.m.

## CNC1(c2ccccc2Cl)CCCCC1=O (stereo not drawn) [ketamine]
Rhesus monkeys; 0.25 mg/kg
  spontaneous nystagmus or centripetal drift of the eye: did not evoke spontaneous nystagmus or centripetal drift of the eye
Rhesus monkeys; 0.25 mg/kg i.m., as a function of delay duration
  latency variance: latency variance decreased
Rhesus monkeys; 0.25 mg/kg i.m., delay durations 400-1900 ms
  reduction of premature saccades by delay duration: particularly strong for long delay durations (1400 ms and 1900 ms)
Rhesus monkeys; 0.25 mg/kg i.m., delays 400, 900, 1400, 1900 ms, group data
  saccadic latency as a function of delay duration: prolonged saccadic latencies differently with increasing delay duration
Rhesus monkeys; 0.25 mg/kg i.m., group data of three monkeys, two blocks of trials following injection
  saccadic latency (all saccades): altered saccadic latency
Rhesus monkeys; 0.25 mg/kg i.m., group data, vs saline
  number of premature saccades: strongly and significantly reduced
Rhesus monkeys; 0.25 mg/kg i.m., saccades with latency <100 ms, group data
  average premature saccade latency: not affected
Rhesus monkeys; Monkey L, 0.25 mg/kg i.m.
  Premature saccades (number): 408
  Premature saccades (percentage of total): (21%)
  Visually guided saccades (number): 1520
  Visually guided saccades (percentage of total): (79%
Rhesus monkeys; Monkey L, 0.25 mg/kg i.m., control 5.7±0.05 deg
  saccade amplitude: 5.2±0.05 deg
Rhesus monkeys; Monkey L, after ketamine injection 0.25 mg/kg i.m.
  decrease of the proportion of valid trials: ~5%
Rhesus monkeys; Monkey S, 0.25 mg/kg i.m.
  Premature saccades (number): 21
  Premature saccades (percentage of total): (7%)
  Visually guided saccades (number): 2939
  Visually guided saccades (percentage of total): (93%)
Rhesus monkeys; Monkey S, after ketamine injection 0.25 mg/kg i.m.
  increase of the proportion of valid trials: ~10%
Rhesus monkeys; Monkey Y, 0.25 mg/kg i.m.
  Premature saccades (number): 150
  Premature saccades (percentage of total): (6%)
  Visually guided saccades (number): 2537
  Visually guided saccades (percentage of total): (94%)
Rhesus monkeys; Monkey Y, 0.25 mg/kg i.m., control 5.7±0.03 deg
  saccade amplitude: 6.2±0.04 deg
Rhesus monkeys; Monkey Y, after ketamine injection 0.25 mg/kg i.m.
  proportion of valid trials: unchanged
Rhesus monkeys; Monkey Y, single injection
  premature saccades after single injection (saccadic latency vs trial number): sharp decrease of premature saccades
Rhesus monkeys; Monkey Y, single injection 0.25 mg/kg i.m.
  trials after injection until the number of early anticipatory saccades was strongly reduced: Approximately 100 trials
Rhesus monkeys; Monkey Y, single injection 0.25 mg/kg i.m., blocks of 200 trials
  return of premature saccades frequency to control levels: Only during the third block following injection
Rhesus monkeys; Monkeys Y and L, 13 injections, 0.25 mg/kg i.m.
  trials until cumulated sums of latencies of control and ketamine diverged: approximately 75 trials
Rhesus monkeys; [3]
  Premature saccades (number): 579
  Visually guided saccades (number): 6996
Rhesus monkeys; after the onset of the second block of trials, single trial 3300 ms on average
  time for ketamine to affect saccade latency: approximately 4 minutes
Rhesus monkeys; ketamine 0.25 mg/kg i.m. vs saline, saccades with latency >100 ms, group data
  average difference in the latency of visually-guided saccade between conditions: approx. 10 ms
Rhesus monkeys; monkeys L and Y, 0.25 mg/kg i.m., 0.25 mg/kg
  saccade amplitude, group data: did not reduce saccade amplitude
Rhesus monkeys; monkeys L and Y, 0.25 mg/kg i.m., listed as Ketamine, 0.25 mg/kg
  saccade amplitude, group data: modestly reduced saccadic amplitude
Rhesus monkeys; monkeys L and Y, ketamine vs control
  saccade amplitude changes: ~10%
Rhesus monkeys; three monkeys, 0.25 mg/kg i.m.
  proportion of valid trials, group level: did not statistically alter the proportion of valid trials
[1]; two animals
  activity of premotor saccadic neurons: decreases the activity of premotor saccadic neurons
[1]; 30 neurons
  average neuronal activity of movement-related SEF neurons after target appearance: reduces activity after target appearance
[1]; 30 neurons, delays 400-1900 ms
  average neuronal activity (spike density) of movement-related SEF neurons during the delay period: reduces neuronal activity during the delay period
[1]
  average neuronal activity of fixation units/neurons: increases the activity of fixation neurons
[1]; listed as Ketamine
  average neuronal activity of fixation units/neurons: increased the fixation, delay and initial saccadic period
[2]
  spontaneous nystagmus or centripetal drift of the eye: could be observed with higher doses
